Measured values from paper PMC6669513, “Identification of A Novel Antibacterial Peptide from Atlantic Mackerel belonging to the GAPDH-Related Antimicrobial Family and Its In Vitro Digestibility” (Marine Drugs, 2019).
No end group written: not given here.

Experiments:
gastric pepsin = conditions: upper gastrointestinal conditions; cited from earlier work
Description: Food additives such as AMPs must be safe for the human microbiota and the environment. Consequently, knowing the digestibility of AMPs in the human gastrointestinal tract is critical and should not be underestimated. The TIM-1 model used to evaluate the stability of the synthetic peptide simulated the major GI stress conditions, such as gastric acid environment, excretion of proteolytic enzymes and bile salts, and peristaltic movements.

[1] = system: Enterococcus faecalis ATCC 29212; conditions: ATCC 29212, 48 h
[2] = system: Listeria monocytogenes ATCC 15313; conditions: ATCC 15313, 48 h
[3] = system: Blautia coccoides ATCC 29236; conditions: ATCC 29236, 48 h
[4] = system: Escherichia coli ATCC 25922; conditions: ATCC 25922, 48 h
[5] = format: in vitro ADME
Protocol: The dynamic GI TIM-1 Model (TNO Nutrition and Food Research Institute, Zeist, the Netherlands) described previously by was used for evaluation of peptide digestibility. Gastric pH began at 4.5 and decreased gradually to 3.6 after 20 min, 2.7 after 40 min and 2.0 after 60 min of digestion by injecting 0.5 mol/L HCl, finally reaching 1.7 after 120 min. The pH of the duodenal, jejunal and ileal compartments was adjusted to 6, 6.8 and 7.2, respectively, by injecting 0.5 mol/L sodium bicarbonate solution. Gastric secretions consisted of pepsin (0.163 mg/mL) from porcine gastric mucosa (EC 3.4.23.1; Sigma-Aldrich Canada Ltd., Oakville, ON, Canada) and lipase (0.133 mg/mL) from Rhizopus oryzae (EC 3.1.1.3; Amano Pharmaceuticals, Nagoya, Japan), both in an electrolyte solution (NaCl, 6.2 g/L; KCl, 2.2 g/L; CaCl2, 0.3 g/L; NaHCO3, 1.5 g/L) delivered at a flow rate of 0.25 mL/min. […]
To check the digestibility of the synthetic GAPDH-related derived peptide, TIM samples were separated by SPE-C18 before analysis by FPLC with ionic exchange column (IEX). […] The absorbance was recorded at 214 nm and collected fractions were screened for sequence peptides by LC-MS/MS analysis as described above.

[6] = system: Staphylococcus aureus ATCC 25923; conditions: ATCC 25923, 48 h
[7] = system: Bacteroides thetaiotaomicron ATCC 29741; conditions: two-fold dilution series from 1.050 mM stock in Mueller-Hinton Broth or Brucella Broth; 5.10^5 CFU/mL; visible growth after 24 or 48 h
Micrococcus luteus 272 = assay: MIC, broth microdilution; format: cell-based; conditions: two-fold dilution series from 1.050 mM stock in Mueller-Hinton Broth or Brucella Broth; 5.10^5 CFU/mL; visible growth after 24 or 48 h
Enterococcus faecium L1 = conditions: L1, 48 h
Bacillus megaterium B301 = conditions: Bacillus B301, 48 h
[8] = system: Lactobacillus acidophilus ATCC 4356; assay: MIC, broth microdilution; format: cell-based; conditions: two-fold dilution series from 1.050 mM stock in Mueller-Hinton Broth or Brucella Broth; 5.10^5 CFU/mL; visible growth after 24 or 48 h
[9] = system: Vibrio parahaemolyticus ALN-0312; conditions: 48 h
[10] = system: Listeria ivanovii ATCC 19119; conditions: ATCC 19119, 48 h
[11] = system: Pseudomonas aeruginosa ATCC 27853; conditions: ATCC 27853, 48 h
[12] = system: Bifidobacterium infantis ATCC 15697; conditions: ATCC 15697, 48 h

In the case of “pediocin PA-1: pediocin PA-1, compared for stability under upper gastrointestinal conditions (KYYGNGVTCGKHSCSVDWGKATTCIINNGAMAWATGGHQGNHKC; ends and bridges not checked; cysteine pairing not given here; UniProt P29430 19-62, looked up)”, the “Stability with gastric pepsin combined with low pH” value (gastric pepsin) is listed as “reduced its stability”.

Substance KVEIVAINDPFIDL [AMGAP] has an MIC [1] of over 1050 µM, an MIC [2] of 131 µM and an MIC [3] of over 1050 µM. For the same substance, the MIC [4] was over 1050 µM, the “Proportion of intact synthetic peptide in the effluent fraction” value [5] was 2% and the “Sensitivity to the digestive process” value ([5]; pH 2.7) was “sensitive”. For the same substance, the MIC [6] was over 1050 µM, the MIC [7] was 263 µM and the MIC (Micrococcus luteus 272) was 263 µM. It also gave an MIC (Enterococcus faecium L1) of over 1050 µM, an MIC (Bacillus megaterium B301) of over 1050 µM and an MIC [8] of 263 µM. For the same substance, the MIC [9] was over 1050 µM, the MIC [10] was 131 µM and the MIC [11] was over 1050 µM. It also gave an MIC [12] of over 1050 µM.
